From the supplement of paper PMC10307832

Assays:
Test in all cases: relative viability (nuclei count vs DMSO), 5 days (fraction); higher = more cells survive
[1] = compound: CC1=C(C(=O)N2C=CSC2=N1)CCN3CCC(=C(C4=CC=CC=C4)C5=CC=C(C=C5)F)CC3 + N=C(N)NC(=N)NCCc1ccccc1 [Phenformin] (partner 250 µM)
Summary of the method: (§1)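 Cells from lung cancer lines were seeded into 1536-well plates and, one day later, dosed by pin tool. Treatments were either a single drug or a fixed dose of an anchor drug with five library-drug doses (not always all listed) in √10 steps. After 5 days, nuclei were stained in a one-step fixation (final 0.05% Triton X-100, 1% formaldehyde, 1 ug/ml Hoechst) and counted on 4× images, and relative viability is the treated-to-vehicle nuclei ratio, as the median of duplicate plates.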

[2] = compound: CC1=C(C(=O)N2C=CSC2=N1)CCN3CCC(=C(C4=CC=CC=C4)C5=CC=C(C=C5)F)CC3 + O=C(c1cc(Cc2n[nH]c(=O)c3ccccc23)ccc1F)N1CCN(C(=O)C2CC2)CC1 [Olaparib] (partner 8 µM)
Summary of the method: as §1

[3] = compound: CC1=C(C(=O)N2C=CSC2=N1)CCN3CCC(=C(C4=CC=CC=C4)C5=CC=C(C=C5)F)CC3 + CC(=O)Nc1cccc(-n2c(=O)n(C3CC3)c(=O)c3c(Nc4ccc(I)cc4F)n(C)c(=O)c(C)c32)c1 [Trametinib] (partner 0.02 µM)
Summary of the method: as §1

[4] = compound: CC1=C(C(=O)N2C=CSC2=N1)CCN3CCC(=C(C4=CC=CC=C4)C5=CC=C(C=C5)F)CC3
Summary of the method: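 Viability here means nuclei in treated wells divided by nuclei in vehicle wells, reported as the median across plates. Only plates with control CV below 25% and at least one doubling passed. Lung cancer cell lines in 1536-well plates were exposed to five √10-spaced library-drug doses for 5 days and counted from 4× Hoechst images in MetaXpress.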

| Cell Line | relative viability ([1]; first compound 0.08 µM) | relative viability ([1]; first compound 0.253 µM) | relative viability ([1]; first compound 0.8 µM) | relative viability ([1]; first compound 2.53 µM) | relative viability ([1]; first compound 8 µM) | relative viability ([2]; first compound 0.08 µM) | relative viability ([2]; first compound 0.253 µM) | relative viability ([2]; first compound 0.8 µM) | relative viability ([2]; first compound 2.53 µM) | relative viability ([2]; first compound 8 µM) | relative viability ([3]; first compound 0.08 µM) | relative viability ([3]; first compound 0.253 µM) | relative viability ([3]; first compound 0.8 µM) | relative viability ([3]; first compound 2.53 µM) | relative viability ([3]; first compound 8 µM) | relative viability ([4]; 0.08 µM) | relative viability ([4]; 0.253 µM) | relative viability ([4]; 0.8 µM) | relative viability ([4]; 2.53 µM) | relative viability ([4]; 8 µM) |
| --- | --- | --- | --- | --- | --- | --- | --- | --- | --- | --- | --- | --- | --- | --- | --- | --- | --- | --- | --- | --- |
| LOU-NH91 | 0.72 | 0.676 | 0.689 | 0.673 | 0.597 | 0.872 | 0.845 | 0.928 | 0.946 | 0.813 | 0.776 | 0.793 | 0.794 | 0.869 | 0.679 | 1.01 | 0.927 | 0.973 | 1.04 | 0.911 |
| HCC-15 | 0.432 | 0.453 | 0.434 | 0.423 | 0.334 | 0.777 | 0.782 | 0.716 | 0.736 | 0.643 | 0.352 | 0.432 | 0.342 | 0.38 | 0.349 | 0.955 | 1.14 | 1.03 | 0.991 | 0.725 |
| SW 1573 | – | 0.343 | 0.4 | 0.377 | 0.24 | 0.502 | 0.323 | 0.465 | 0.625 | 0.357 | 0.562 | 0.678 | 0.646 | 0.652 | 0.354 | 0.892 | 1.12 | 1.08 | 1.04 | 0.61 |
| LXF-289 | 0.463 | 0.542 | 0.508 | 0.482 | 0.376 | 0.987 | 1.32 | 1.07 | 1 | 0.635 | 0.592 | 0.67 | 0.738 | 0.634 | 0.537 | 0.952 | 1.1 | 1.03 | 1.03 | 0.893 |
| NCI-H1355 | 0.428 | 0.442 | 0.441 | 0.427 | 0.391 | 0.749 | 0.815 | 0.793 | 0.732 | 0.529 | 0.49 | 0.444 | 0.407 | 0.408 | 0.421 | 0.961 | 1 | 1.04 | 0.981 | 0.757 |
| NCI-H1755 | 0.681 | 0.659 | 0.578 | 0.66 | 0.565 | 0.892 | 0.995 | 0.939 | 0.934 | 0.719 | 0.751 | 0.716 | 0.794 | 0.778 | 0.595 | 0.926 | 0.998 | 1.04 | 1.02 | 0.777 |
| NCI-H661 | 0.242 | 0.268 | 0.277 | 0.297 | 0.291 | 0.797 | 0.73 | 0.8 | 0.783 | 0.463 | 0.49 | 0.486 | 0.525 | 0.518 | 0.462 | 0.851 | 1 | 1.01 | 1.02 | 0.764 |
| LCLC-97TM1 | 0.435 | 0.434 | 0.447 | 0.448 | 0.411 | 0.414 | 0.342 | 0.425 | 0.452 | 0.344 | 0.183 | 0.18 | 0.23 | 0.172 | 0.151 | 0.921 | 1.07 | 1.02 | 0.874 | 0.91 |
| ChaGo-K-1 | 0.561 | 0.462 | 0.53 | 0.539 | 0.431 | 0.451 | 0.415 | 0.411 | 0.458 | 0.416 | 0.821 | 0.926 | 0.961 | 0.963 | 0.673 | 0.86 | 1.1 | 1.06 | 1.09 | 0.623 |
| NCI-H1792 | – | 0.257 | 0.211 | 0.33 | 0.254 | 0.318 | 0.357 | 0.631 | 0.603 | 0.348 | 0.205 | 0.432 | 0.378 | 0.531 | 0.166 | 0.759 | 0.825 | 0.942 | 0.856 | 0.403 |
| NCI-H3122 | 0.38 | 0.376 | 0.386 | 0.396 | 0.394 | 0.458 | 0.627 | 0.595 | 0.628 | 0.371 | 0.214 | 0.247 | 0.229 | 0.235 | 0.229 | 0.951 | 1.04 | 1.01 | 1.12 | 0.715 |
